In ChEMBL document CHEMBL1201862, “PubChem BioAssay data set” (2004):
Active and inactive are the calls of the source.

What was measured:
Vero = assay: cells; assay type: functional; details: Chlorocebus sabaeus
Leucine aminopeptidase = molecular target: T1, Leucine aminopeptidase (Plasmodium falciparum 3D7, UniProt Q8IL11); assay: P. falciparum M17LAP inhibitors, primary screen, biochemical, fluorogenic H-Leu-NHMec substrate, 1536-well (AID 1619); assay type: functional
T1 sequence (Q8IL11 whole entry): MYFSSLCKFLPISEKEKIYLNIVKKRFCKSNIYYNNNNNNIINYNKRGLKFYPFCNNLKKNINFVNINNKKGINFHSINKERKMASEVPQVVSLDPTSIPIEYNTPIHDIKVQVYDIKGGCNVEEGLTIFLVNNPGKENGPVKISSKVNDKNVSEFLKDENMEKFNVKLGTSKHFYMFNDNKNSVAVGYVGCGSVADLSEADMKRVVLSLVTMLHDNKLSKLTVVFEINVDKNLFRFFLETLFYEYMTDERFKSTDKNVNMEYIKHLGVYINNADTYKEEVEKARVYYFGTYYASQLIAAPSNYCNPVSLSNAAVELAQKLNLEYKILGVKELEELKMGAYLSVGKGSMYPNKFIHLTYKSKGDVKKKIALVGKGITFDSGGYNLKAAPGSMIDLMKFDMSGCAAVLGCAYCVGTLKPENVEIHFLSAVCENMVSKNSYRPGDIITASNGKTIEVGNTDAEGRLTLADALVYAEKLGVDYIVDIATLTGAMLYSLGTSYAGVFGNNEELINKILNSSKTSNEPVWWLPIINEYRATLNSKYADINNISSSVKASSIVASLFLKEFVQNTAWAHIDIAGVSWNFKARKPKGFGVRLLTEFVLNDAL

[1] = HEp-2 cell cytotoxicity, dose response, cytotoxicity control for RSV inhibitor project, HTS (AID 2410); assay type: functional; details: human respiratory syncytial virus
[2] = Luminescence Cell-Based Dose Retest to Confirm Inhibitors of Cancer Stem Cells. [Related pubchem assays (depositor defined):AID2717, AID2721]; assay type: functional, Homo sapiens; details: Homo sapiens
[3] = molecular target: T2, Heat shock factor protein 1 (Mus musculus, UniProt P38532); assay: HSF1 potentiators in luciferase reporter cells, confirmation, cell-based, NIH3T3, luminescence, dose retest (AID 435004); assay type: functional;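 also: stress induced by proteasome inhibitor MG132 added 30 min after compound; luciferase reporter driven by HSF1 response element in NIH3T3 cells; actives raise luminescence as potentiators of the MG132 stress response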
T2 sequence (P38532 whole entry): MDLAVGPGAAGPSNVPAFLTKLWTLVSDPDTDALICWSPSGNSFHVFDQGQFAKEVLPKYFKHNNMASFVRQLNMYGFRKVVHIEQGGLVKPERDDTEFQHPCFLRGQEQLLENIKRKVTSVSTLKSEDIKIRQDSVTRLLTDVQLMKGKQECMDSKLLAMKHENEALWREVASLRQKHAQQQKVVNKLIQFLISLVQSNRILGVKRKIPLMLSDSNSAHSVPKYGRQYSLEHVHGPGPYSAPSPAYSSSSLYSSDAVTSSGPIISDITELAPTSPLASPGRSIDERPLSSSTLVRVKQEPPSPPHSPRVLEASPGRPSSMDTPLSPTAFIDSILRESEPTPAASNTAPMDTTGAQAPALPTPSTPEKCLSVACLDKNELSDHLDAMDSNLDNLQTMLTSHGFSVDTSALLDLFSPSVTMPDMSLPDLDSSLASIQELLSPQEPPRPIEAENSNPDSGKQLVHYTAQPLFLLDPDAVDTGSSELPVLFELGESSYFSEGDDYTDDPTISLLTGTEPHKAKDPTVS
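For AC50 in this document: cells exposed to compound for roughly 70 hours or longer before luminescence read.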

O=C(COc1ccccc1)NNC(=S)NC(=O)c1ccccc1
active: CC50 (Vero) > 25 µM | IC50 (Leucine aminopeptidase) 9.22 µM

COc1ccc(C(=O)/C=C/c2ccc(OC)c(Cn3nnc4ccccc43)c2)cc1
active: CC50 [1] 12.1 µM | AC50 [2] 6.14 µM | EC50 [3] 14.1 µM | CC50 (Vero) 15.2 µM
